Columns and labels:
Type in all cases: in vivo
Heliothis peltigera [1] = test: Pheromonotropic bioassay: peptide injected into females, pheromone content (Z11-16:Ald) of the gland measured; conditions: for effect of protease inhibitors on the biological activity of the peptide (in words): mixture of carboxypeptidase inhibitors (aprotinin and PMSF) and other protease inhibitors (TLCK, bacitracin) (FIG. 3); for biological activity (in words): 10 pmol in the presence of protease inhibitors for 2 hours
Procedure: (§1) Structure activity studies were performed by an examination of the pheromonotropic activity of synthetic Hez-PAN (PBAN 1-33 NH2) and ten shorter fragments derived from its N- and C-terminal regions. Activity was tested on Heliothis peltigera using a bioassay as described by Gazit et al; (Insect Biochem., 20, 853-858, 1990). These structures are as follows:
The role of the N-terminus on the onset of the biological activity was examined using a series of peptides lacking 8, 12, 16, and 18 amino acids from their N-terminus [PBAN (9-33) NH2, PBAN (13-33) NH2, PBAN (17-33) NH2 and PBAN (19-33) NH2], respectively. […] Pheromone content was examined two hours post-injection. […] The N-terminal region may provide stability against proteolytic degradation or alternatively may play a secondary structural role.
Pheromonotropic activity was determined by injecting the peptides, dissolved in buffer phosphate to 3.5-4.5 days old females during daylight for two hours. Pheromone content is represented by the amount of the major pheromone component Z11-16:Ald.

Heliothis peltigera [2] = test: Inhibition of pheromonotropic activity evoked by PBAN (1-33) NH2 (co-injection of free acid fragments or antiserum); conditions: for inhibitory activity on pheromonotropic activity evoked by PBAN (1-33) NH2 (in words): injected together with 1 pmol PBAN (1-33) NH2
Procedure: as §1, with “1990).” for “1990). These structures are as follows:”

[3] = test system: Spodoptera littoralis larvae; test: Melanotropic bioassay: cuticular melanization in ligated larvae; conditions: for Non pigmented area / Pigmented area: 10 pmol injected, ligated larvae, computerized optical density scanner; for cuticular melanization (in words): injection into ligated larvae, compared with ligation or buffer injection
Procedure: Structure activity studies were also performed with respect to the melanotropic activity of synthetic Hez-PBAN. All the fragments that were tested for their pheromonotropic activity were also tested for their melanotropic activity. Studies were performed on Spodoptera littoralis larvae using a quantitative bioassay (Altstein et al., Peptides, submitted, 1994) which examines the ability of PBAN fragments to induce cuticular melanization in ligated larvae. Ligated larvae produce smaller amounts of melanin compared to untreated larvae (Table 4) as a result of a reduction in their endogenous PBAN. Under the tested conditions ligation caused a significant, but not complete, reduction in cuticular melanization. This incomplete reduction may result from the presence of PBAN in ganglia which were not affected by the ligation or from the presence of another hormone or neuropeptide that affects this process.
Pigmented and non-pigmented areas were determined by a computerized optical density scanner as described by Altstein et al., (Peptides, submitted, 1994).

Heliothis peltigera [4] = test: Pheromonotropic bioassay: peptide injected into females, pheromone content (Z11-16:Ald) of the gland measured; conditions: shortly after injection (15-30 min) (FIG. 5)
[5] = Dose of 1 pmol, injected in phosphate buffer to 3.5-4.5 days old females during daylight for two hours
[6] = Dose of 10 pmol, injected in phosphate buffer to 3.5-4.5 days old females during daylight for two hours
[7] = C-terminally free acid peptides, 10 pmol, in the presence of protease inhibitors for 2 hours
[8] = free acid fragment at 10 pmol injected together with PBAN (1-33) NH2 at 1 pmol
[9] = 1 pmol, pheromone content two hours post-injection
[10] = concentrations ranging from 1-100 pmol, tested 2 hours post injection (FIG. 4)

H-Gln-Asp-Pro-Glu^20-Gln-Ile-Asp-Ser-Arg-Thr-Lys-Tyr-Phe-Ser^30-Pro-Arg-Leu^33-NH2 [PBAN (17-33) NH2]
Pheromone content Z11-16:Ald ng/gland ± SE (Heliothis peltigera [1]; [5]): 24.1 ± 5.7 c ng/gland | Pheromone content Z11-16:Ald ng/gland ± SE (Heliothis peltigera [1]; [6]): 196.9 ± 40.7 a′ ng/gland

H-Glu-Met-Tyr-Arg-Gln-Asp-Pro-Glu^20-Gln-Ile-Asp-Ser-Arg-Thr-Lys-Tyr-Phe-Ser^30-Pro-Arg-Leu^33-NH2 [PBAN (13-33) NH2]
Pheromone content Z11-16:Ald ng/gland ± SE (Heliothis peltigera [1]; [5]): 4.1 ± 3.0 d ng/gland | Pheromone content Z11-16:Ald ng/gland ± SE (Heliothis peltigera [1]; [6]): 180.2 ± 47.3 a′ ng/gland

H-Leu^1-Ser-Asp-Asp-Met-Pro-Ala-Thr-Pro-Ala^10-Asp-Gln-Glu-Met-Tyr-Arg-Gln-Asp-Pro-Glu^20-Gln-Ile-Asp-Ser-Arg-Thr-Lys-Tyr-Phe-Ser^30-Pro-Arg-Leu^33-COOH [PBAN (1-33) COOH]
pheromonotropic activity (in words) (Heliothis peltigera [1]; 10 pmol): completely inactive | Pheromone content Z11-16:Ald ng/gland ± SE (Heliothis peltigera [1]; [7]): 1.4 ± 0.76 ng/gland | effect of protease inhibitors on the biological activity of the peptide (in words) (Heliothis peltigera [1]): did not enhance | Inhibition (% of cont) (Heliothis peltigera [2]; [8]): 0% | Pheromone content Z11-16:Ald ng/gland ± SE (Heliothis peltigera [2]; [8]): 170.2 ± 24.2 ng/gland | inhibitory activity on pheromonotropic activity evoked by PBAN (1-33) NH2 (in words) (Heliothis peltigera [2]): did not show any inhibitory activity

H-Leu^1-Ser-Asp-Asp-Met-Pro-Ala-Thr-Pro-Ala^10-Asp-Gln-Glu-Met-Tyr-Arg-Gln-Asp-Pro-Glu^20-Gln-Ile-Asp-Ser-Arg-Thr-Lys-Tyr-Phe-Ser^30-Pro-Arg-Leu^33-NH2 [PBAN (1-33) NH2, reference compound]
Non pigmented area [3]: 4% | Pigmented area [3]: 96% | cuticular melanization (in words) [3]: significant increase | Pheromone content Z11-16:Ald ng/gland ± SE (Heliothis peltigera [1]; [5]): 200.7 ± 40.7 a ng/gland | Pheromone content Z11-16:Ald ng/gland ± SE (Heliothis peltigera [1]; [6]): 225.2 ± 51.4 a′ ng/gland | effect of protease inhibitors on the biological activity of the peptide (in words) (Heliothis peltigera [1]): significant stimulation in its activity | Pheromone content Z11-16:Ald ng/gland ± SE (Heliothis peltigera [2]; PBAN (1-33) NH2 alone at 1 pmol (control of Table 3)): 165.0 ± 21.0 ng/gland

H-Pro-Ala^10-Asp-Gln-Glu-Met-Tyr-Arg-Gln-Asp-Pro-Glu^20-Gln-Ile-Asp-Ser-Arg-Thr-Lys-Tyr-Phe-Ser^30-Pro-Arg-Leu^23-COOH (H-PADQEMYRQDPEQIDSRTKYFSPRL-OH) [PBAN (9-33) COOH]
biological activity (in words) (Heliothis peltigera [1]): lack any biological activity | Pheromone content Z11-16:Ald ng/gland ± SE (Heliothis peltigera [1]; [7]): <1 ng/gland | Inhibition (% of cont) (Heliothis peltigera [2]; [8]): 7% | Pheromone content Z11-16:Ald ng/gland ± SE (Heliothis peltigera [2]; [8]): 154.7 ± 22.2 ng/gland | inhibitory activity on pheromonotropic activity evoked by PBAN (1-33) NH2 (in words) (Heliothis peltigera [2]): did not show any inhibitory activity

H-Pro-Ala^10-Asp-Gln-Glu-Met-Tyr-Arg-Gln-Asp-Pro-Glu^20-Gln-Ile-Asp-Ser-Arg-Thr-Lys-Tyr-Phe-Ser^30-Pro-Arg-Leu^33-NH2 [PBAN (9-33) NH2]
pheromonotropic activity (in words) (Heliothis peltigera [1]; [9]): active as PBAN (1-33) NH2 | Pheromone content Z11-16:Ald ng/gland ± SE (Heliothis peltigera [1]; [5]): 143.7 ± 29.6 a ng/gland | Pheromone content Z11-16:Ald ng/gland ± SE (Heliothis peltigera [1]; [6]): 168.0 ± 9.2 a′ ng/gland

H-Pro-Ala^10-Asp-Gln-Glu-Met-Tyr-Arg-Gln-Asp^18-COOH (H-PADQEMYRQD-OH) [PBAN (9-18) COOH]
Non pigmented area [3]: 25% | Pigmented area [3]: 75% | cuticular melanization (in words) [3]: significant decrease | biological activity (in words) (Heliothis peltigera [1]): lack any biological activity | Pheromone content Z11-16:Ald ng/gland ± SE (Heliothis peltigera [1]; [7]): <1 ng/gland | inhibition of the pheromonotropic activity (Heliothis peltigera [2]; 100 pmol of fragment together with 0.5 pmol PBAN (1-33) NH2 (FIG. 6)): 40% | Inhibition (% of cont) (Heliothis peltigera [2]; [8]): 35% | Pheromone content Z11-16:Ald ng/gland ± SE (Heliothis peltigera [2]; [8]): 108.1 ± 18.0 ng/gland

H-Pro-Glu^20-Gln-Ile-Asp-Ser-Arg-Thr-Lys-Tyr-Phe-Ser^30-Pro-Arg-Leu^33-COOH [PBAN (19-33) COOH]
biological activity (in words) (Heliothis peltigera [1]): lack any biological activity | Pheromone content Z11-16:Ald ng/gland ± SE (Heliothis peltigera [1]; [7]): <1 ng/gland | Inhibition (% of cont) (Heliothis peltigera [2]; [8]): 27% | Pheromone content Z11-16:Ald ng/gland ± SE (Heliothis peltigera [2]; [8]): 120.4 ± 29.2 ng/gland | inhibitory activity on pheromonotropic activity evoked by PBAN (1-33) NH2 (in words) (Heliothis peltigera [2]): did not show any inhibitory activity

H-Pro-Glu^20-Gln-Ile-Asp-Ser-Arg-Thr-Lys-Tyr-Phe-Ser^30-Pro-Arg-Leu^33-NH2 [PBAN (19-33) NH2]
pheromonotropic activity (in words) (Heliothis peltigera [1]; [9]): low activity | Pheromone content Z11-16:Ald ng/gland ± SE (Heliothis peltigera [1]; [5]): 52.7 ± 21.0 b ng/gland | Pheromone content Z11-16:Ald ng/gland ± SE (Heliothis peltigera [1]; [6]): 133.8 ± 15.7 b′ ng/gland

H-Thr-Lys-Tyr-Phe-Ser^30-Pro-Arg-Leu^33-NH2 (H-TKYFSPRL-NH2) [PBAN (26-33) NH2]
Pheromone content Z11-16:Ald ng/gland ± SE (Heliothis peltigera [1]; [5]): 8.9 ± 3.5 d ng/gland | Pheromone content Z11-16:Ald ng/gland ± SE (Heliothis peltigera [1]; [6]): 12.2 ± 3.1 c′ ng/gland | pheromonotropic activity (in words) (Heliothis peltigera [1]; [10]): active only at high doses (100 pmol)

H-Tyr-Phe-Ser^30-Pro-Arg-Leu^33-NH2 (H-YFSPRL-NH2) [PBAN (28-33) NH2]
pheromonotropic activity (in words) (Heliothis peltigera [4]): does not differ significantly from that of the full length PBAN (1-33) NH2 | Pheromone content Z11-16:Ald ng/gland ± SE (Heliothis peltigera [1]; [5]): 5.6 ± 1.7 d ng/gland | Pheromone content Z11-16:Ald ng/gland ± SE (Heliothis peltigera [1]; [6]): 12.7 ± 4.9 c′ ng/gland | pheromonotropic activity (in words) (Heliothis peltigera [1]; [10]): active only at high doses (100 pmol)

From US6358927B1, “Peptide fragments and analogs derived from PBAN 1-33 NH2 for controlling moths” (priority 1994, dated 2002)
